# Data reported in ChEMBL document CHEMBL4400531, “Structure-Based Design of N-(5-Phenylthiazol-2-yl)acrylamides as Novel and Potent Glutathione S-Transferase Omega 1 Inhibitors” (J Med Chem, 2019).
# What was measured:
# [1] = Half life in mouse liver microsomes at 1 uM in presence of NADPH by LC-MS/MS analysis; type: ADME, Microsome
# [2] = Stability of the compound in 20% acetonitrile/PBS buffer at room temperature by LC-MS/MS analysis; type: physicochemical
# [3] = Half life in human liver microsomes at 1 uM in presence of NADPH by LC-MS/MS analysis; type: ADME, Microsome
# HT-29 = assay: cells; details: Homo sapiens, HT-29, 72 h
# [4] = molecular target: T1, Glutathione S-transferase omega-1 (Homo sapiens, UniProt P78417); assay: Inhibition of CMFDA binding to human N-terminal 6x-His-tagged GSTO1-1 preincubated for 30 mins followed by CMFDA addition and measured after 30 mins by in-gel fluorescence binding assay
# T1 sequence (P78417 whole entry): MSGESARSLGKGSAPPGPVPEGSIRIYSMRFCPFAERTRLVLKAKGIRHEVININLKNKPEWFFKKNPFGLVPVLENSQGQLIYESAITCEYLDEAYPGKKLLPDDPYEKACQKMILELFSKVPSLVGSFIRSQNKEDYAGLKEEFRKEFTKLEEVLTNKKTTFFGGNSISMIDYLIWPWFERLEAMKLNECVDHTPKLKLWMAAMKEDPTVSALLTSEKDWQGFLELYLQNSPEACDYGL
# HCT-116 = assay: cells; details: Homo sapiens, HCT-116, 72 h
# Description: Antiproliferative activity against human HCT116 cells after 72 hrs by MTT assay
# [5] = Metabolic stability in human liver microsomes at 1 uM in presence of NADPH incubated for 10 mins by LC-MS/MS analysis; type: ADME, Microsome; details: read-out: Stability
# [6] = Metabolic stability in mouse liver microsomes at 1 uM in presence of NADPH incubated for 0 mins by LC-MS/MS analysis; type: ADME, Microsome; details: read-out: Stability
# [7] = Metabolic stability in mouse liver microsomes at 1 uM in presence of NADPH incubated for 5 mins by LC-MS/MS analysis; type: ADME, Microsome; details: read-out: Stability
# [8] = Metabolic stability in human liver microsomes at 1 uM in presence of NADPH incubated for 0 mins by LC-MS/MS analysis; type: ADME, Microsome; details: read-out: Stability
# [9] = Metabolic stability in human liver microsomes at 1 uM in presence of NADPH incubated for 5 mins by LC-MS/MS analysis; type: ADME, Microsome; details: read-out: Stability
# [10] = Metabolic stability in mouse liver microsomes at 1 uM in presence of NADPH incubated for 10 mins by LC-MS/MS analysis; type: ADME, Microsome; details: read-out: Stability
# [11] = Metabolic stability in mouse liver microsomes at 1 uM in presence of NADPH incubated for 60 mins by LC-MS/MS analysis; type: ADME, Microsome; details: read-out: Stability
# [12] = Metabolic stability in mouse liver microsomes at 1 uM in presence of NADPH incubated for 30 mins by LC-MS/MS analysis; type: ADME, Microsome; details: read-out: Stability
# [13] = Metabolic stability in mouse liver microsomes at 1 uM in presence of NADPH incubated for 15 mins by LC-MS/MS analysis; type: ADME, Microsome; details: read-out: Stability
# [14] = Metabolic stability in human liver microsomes at 1 uM in presence of NADPH incubated for 60 mins by LC-MS/MS analysis; type: ADME, Microsome; details: read-out: Stability
# [15] = Metabolic stability in human liver microsomes at 1 uM in presence of NADPH incubated for 30 mins by LC-MS/MS analysis; type: ADME, Microsome; details: read-out: Stability
# [16] = Metabolic stability in human liver microsomes at 1 uM in presence of NADPH incubated for 15 mins by LC-MS/MS analysis; type: ADME, Microsome; details: read-out: Stability
# [17] = Metabolic stability in mouse liver microsomes at 1 uM in presence of NADPH incubated for 45 mins by LC-MS/MS analysis; type: ADME, Microsome; details: read-out: Stability
# [18] = Metabolic stability in human liver microsomes at 1 uM in presence of NADPH incubated for 45 mins by LC-MS/MS analysis; type: ADME, Microsome; details: read-out: Stability
IC50 (HT-29) [µM],IC50 [4] [µM],IC50 (HCT-116) [µM],Compound,other results
–,–,–,C=CC(=O)Nc1nc(-c2ccc(Cl)cc2)cs1,t1/2 [1]: 3.21 min; Stability [2]: Stable; t1/2 [3]: 9.52 min
> 30,> 10,> 30,C=CC(=O)Nc1cnn(Cc2ccccc2)c1,–
> 30,> 10,> 30,C=CC(=O)Nc1cnn(-c2ccccc2)c1,–
> 30,> 10,> 30,COC(=O)/C=C/CNc1ccc(Cl)c(S(=O)(=O)N(C)C)c1,–
> 30,> 10,> 30,C=CC(=O)N1CCC(Cc2ccccc2)CC1,–
6.1 to 13.5,> 10,7.1 to 12.5,C=CC(=O)Nc1nc(-c2ccc(O)cc2)cs1,–
> 30,> 10,> 30,C=CC(=O)Nc1nc(-c2ccccc2OC)cs1,–
> 30,> 10,> 30,C=CC(=O)N1CCC(c2ccccc2)CC1,–
–,–,–,C=CC(=O)N(Cc1cc(C)no1)c1nc(-c2ccccc2O)cs1,"remaining at 10 min, 1 µM [5]: 7.41%; remaining at 0 h, 1 µM [6]: 100%; remaining at 5 min, 1 µM [7]: 16%; remaining at 0 h, 1 µM [8]: 100%; remaining at 5 min, 1 µM [9]: 14.8%; remaining at 10 min, 1 µM [10]: 12%; remaining at 1 h, 1 µM [11]: 4%; remaining at 0.5 h, 1 µM [12]: 8%; remaining at […], 1 µM [13]: 12%; t1/2 [1]: 1.81 min; remaining at 1 h, 1 µM [14]: 3.7%; remaining at 0.5 h, 1 µM [15]: 3.7%; remaining at […], 1 µM [16]: 3.7%; remaining at 0.75 h, 1 µM [17]: 4%; remaining at 0.75 h, 1 µM [18]: 3.7%; Stability [2]: Stable; t1/2 [3]: 1.89 min"
